Consider 64 compounds from ChEMBL document CHEMBL5604062, “ASAP - ZIKV NS2B-NS3 protease fluorescence dose response” (2024).

SMILES strings stand for the structures. pIC50: −log10 of the molar value. Where “and” joins values, the source holds several entries; their conditions need not be identical. Equal entries are not always repeated. Bounds are passed on as bounds.

Chain of Nonstructural protein 3 (A0A024AXB9 whole entry): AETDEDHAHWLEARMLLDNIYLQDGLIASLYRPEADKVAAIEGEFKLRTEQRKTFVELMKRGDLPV

The experiment addresses Nonstructural protein 3 (Zika virus, UniProt A0A024AXB9). Description: Functional biochemical assay to identify treatments for viral infectious disease that targets Zika NS2B-NS3 protease. Utilizing a direct enzyme activity measurement method, reading the fluorescence intensity is used to characterize the relative potency of inhibitors as IC50. Also on record: species or system PRVABC59.
A word on the pIC50: it is −log10 of the IC50, conventionally taken in molar units. Low values mean a large IC50, high ones a small IC50. Consider `NCc1cccc(NC(=O)[C@@H](NC(=O)OCc2ccccc2)c2ccc(Br)cc2)c1`, for which the pIC50 was 4.27 and 4.26.

As to `Cc1cc(Cl)c(C)c(C(=O)O)c1NS(=O)(=O)c1ccc(Oc2ccccc2Cl)cc1`, the pIC50 was 4.03.

Consider `C[C@@H](C(=O)Nc1cccc(CN)c1)c1ccc(OCc2ccccc2)cc1`, for which the pIC50 is under 4.00.

Regarding `CC(C)(C)OC(=O)NCc1cccc(NC(=O)[C@@H](NC(=O)OCc2ccccc2)c2ccc(O)cc2)c1`, the pIC50 is under 4.00.

As to `Cc1cc(C(=O)O)c(NS(=O)(=O)c2ccc(Oc3ccccc3Cl)cc2)cc1F`, the pIC50 is 4.67.

On to `NCc1cccc(NC(=O)C[C@@H](NC(=O)OCc2ccccc2)c2ccc(OCc3ccccc3)cc2)c1`, for which the pIC50 is 5.16.

Compound `CCn1cc(-c2ccccc2)nc(N2CC[C@@H](CO)C2)c1=O` had a pIC50 of under 4.00.

With `Cn1cc(C(=O)O)c(NS(=O)(=O)c2ccc(Oc3ccccc3Cl)cc2)n1`, the pIC50 is under 4.00.

Turning to `NCc1cccc(NC(=O)[C@@H](Cc2ccccc2)NC(=O)OCc2ccccc2)c1`, the negative-log IC50 (pIC50) was under 4.00.

Turning to `COc1ccc(S(=O)(=O)Nc2cc(F)c(Cl)cc2C(=O)NCC(C)C)cc1`, the pIC50 was under 4.00.

In the case of `NCc1cccc(NC(=O)[C@@H](NC(=O)OCc2ccccc2)c2c(F)cccc2F)c1`, the negative-log IC50 (pIC50) was under 4.00.

For `O=C(O)c1cc(Cl)ccc1NS(=O)(=O)c1ccc(Oc2ccccc2)cc1`, the pIC50 was 4.15.

Consider `Cc1cnn(-c2cc(C(=O)O)c(NS(=O)(=O)c3ccc(Oc4ccccc4Cl)cc3)cc2F)c1`, for which the pIC50 is 4.98. This pIC50 lies 0.83 log units higher than the previous one.

`CCn1cc(Cl)nc(N2CC[C@@H](CO)C2)c1=O`: the pIC50 is under 4.00.

Compound `NC(=O)[C@H](c1c[nH]c2ccccc12)N1CCC(c2cnc3ccc[nH]c2-3)CC1` had a pIC50 of 4.02.

`O=C(O)c1cc(OC2CCOCC2)c(F)cc1NS(=O)(=O)c1ccc(Oc2ccccc2Cl)cc1` had a pIC50 of 4.43.

`OC[C@H]1CCN(c2cncc(N3CCOCC3)n2)C1` showed a pIC50 of under 4.00.

As for `CC(C)Oc1cncc(N2CC[C@@H](CO)C2)c1`, the pIC50 is under 4.00.

As to `O=C(O)c1cc(Cl)c(Cl)cc1NS(=O)(=O)c1ccc(Oc2ccccc2Cl)cc1`, the pIC50 was 5.04.

In turn, `Cn1cc(NS(=O)(=O)c2ccc(Oc3ccccc3Cl)cc2)c(C(=O)O)n1` gave a pIC50 of under 4.00.

Regarding `O[C@@H]1CN(Cc2c[nH]c3ccccc23)C[C@H]1c1c[nH]c2ccccc12`, the pIC50 was under 4.00.

For `CCn1ccnc(-n2cc([C@@H]3NC(=O)NC3=O)c3ccccc32)c1=O`, the negative-log IC50 (pIC50) was under 4.00.

Consider `CCn1cc(-c2ccnc(C)c2)nc(N2CC[C@@H](CO)C2)c1=O`, for which the pIC50 is under 4.00.

Compound `NCc1cccc(NC(=O)[C@@H](N)c2ccc(OCc3ccccc3)cc2)c1` showed a pIC50 of under 4.00.

Regarding `NCc1cccc(NC(=O)[C@H](NC(=O)OCc2ccccc2)c2ccc(OCc3ccccc3)cc2)c1`, the negative logarithm of the IC50 (pIC50) was 5.16.

`O=C(O)c1cc(Cl)c(F)cc1NS(=O)(=O)c1ccc(Oc2ccccc2Cl)cc1` gave a pIC50 of 4.98.

Regarding `CCn1ccc(-c2ccc([C@@H](NC(=O)OCc3ccccc3)C(=O)Nc3cccc(CN)c3)cc2)n1`, the pIC50 was under 4.00.

`COC(=O)c1cc(Cl)ccc1NS(=O)(=O)c1ccc(Br)cc1` showed a pIC50 of under 4.00.

Consider `O=C(O)c1c(NS(=O)(=O)c2ccc(Oc3ccccc3Cl)cc2)ccc(Cl)c1F`, for which the pIC50 is 4.27.

The compound `CCn1cc(C(=O)NC)nc(N2CC[C@@H](CO)C2)c1=O` gave a pIC50 of under 4.00.

Regarding `CCn1cc(C#N)nc(N2CC[C@@H](CO)C2)c1=O`, the pIC50 was under 4.00.

The compound `O=C(O)c1cc2c(cc1NS(=O)(=O)c1ccc(Oc3ccccc3Cl)cc1)CCC2` showed a pIC50 of 4.76.

In the case of `NCc1cccc(NC(=O)[C@@H](NC(=O)OCc2ccccc2)c2ccc(-c3ccccc3F)cc2)c1`, the pIC50 is 5.07.

In turn, `NCc1cc(Cl)ccc1NS(=O)(=O)c1ccc(Oc2ccccc2Cl)cc1` gave a pIC50 of under 4.00.

In turn, `COC(=O)c1cc(Cl)ccc1NS(=O)(=O)c1ccc(Oc2ccccc2Cl)cc1` showed a pIC50 of under 4.00.

In the case of `O=C(O)[C@H]1CCCC[C@@H]1NS(=O)(=O)c1ccc(Oc2ccccc2Cl)cc1`, the pIC50 was under 4.00.

`O=C(NCC1CC1)c1cc(Cl)cc(NS(=O)(=O)c2ccc(Oc3ccccc3Cl)cc2)c1` showed a pIC50 of 4.30.

`O=C(O)[C@@H]1CC2(CC[C@@H]1NS(=O)(=O)c1ccc(Oc3ccccc3Cl)cc1)CC2` had a pIC50 of under 4.00.

`COC(=O)c1cc(Cl)ccc1NS(=O)(=O)c1ccc(Cl)nc1` had a pIC50 of under 4.00.

Turning to `NCc1cccc(NC(=O)CN(C(=O)OCc2ccccc2)c2ccc(OCc3ccccc3)cc2)c1`, the negative-log IC50 (pIC50) was 4.84.

As for `COc1cc(N[C@@H](C(=O)N2CCc3ccc(OC(F)(F)F)cc32)c2ccc(Cl)cc2)cc(OCCCC(=O)O)c1`, the pIC50 is 4.69.

For `NCc1cccc(NC(=O)[C@@H](NC(=O)OCc2ccccc2)c2cccnc2)c1`, the pIC50 is under 4.00.

In the case of `NCc1cccc(NC(=O)c2cc(OCc3ccccc3)ccc2CNC(=O)OCc2ccccc2)c1`, the pIC50 was 4.67.

Turning to `O=C(O)c1cc(Cl)ccc1S(=O)(=O)Nc1ccc(Oc2ccccc2Cl)cc1`, the negative-log IC50 (pIC50) is 4.32.

For the compound `O=C(O)[C@@H]1CCCC[C@H]1NS(=O)(=O)c1ccc(Oc2ccccc2Cl)cc1`, the pIC50 is under 4.00.

Compound `O=C(O)c1cc(F)c(F)cc1NS(=O)(=O)c1ccc(Oc2ccccc2Cl)cc1` showed a pIC50 of 4.50.

Consider `O=C(N[C@@H]1CCc2cn[nH]c2C1)c1cccc2c1NC(=O)[C@]1(CCCN1)C2`, for which the pIC50 is under 4.00.

For `Cc1cc(-c2ccc([C@@H](NC(=O)OCc3ccccc3)C(=O)Nc3cccc(CN)c3)cc2)cs1`, the pIC50 is 5.40.

For the compound `O=C(O)c1nscc1NS(=O)(=O)c1ccc(Oc2ccccc2Cl)cc1`, the pIC50 was under 4.00.

`OC[C@H]1CCN(c2ccnc(C(F)F)c2)C1` showed a pIC50 of under 4.00.

`O=C(O)c1cc(NS(=O)(=O)c2ccc(Oc3ccccc3Cl)cc2)ccc1Cl`: the pIC50 was under 4.00.

Turning to `CCn1ccnc(N2C[C@@H](OC(=O)OC)[C@H](c3c[nH]c4ccccc34)C2)c1=O`, the pIC50 is under 4.00.

As to `Cc1cccc([C@@H](NC(=O)OCc2ccccc2)C(=O)Nc2cccc(CN)c2)n1`, the pIC50 was under 4.00.

The compound `Cn1cc(CN2CCC(c3c[nH]c4cccnc34)CC2)c2ccccc21` showed a pIC50 of under 4.00.

As for `CC(C)(C)OC(=O)NCc1cccc(NC(=O)[C@@H](NC(=O)OCc2ccccc2)c2cccc(O)c2)c1`, the pIC50 is under 4.00.

Consider `Cc1cc(C=O)c(C)n1-c1cccc(C(=O)N2CCN(C)CC2)c1`, for which the negative-log IC50 (pIC50) is under 4.00.

In the case of `O=C(O)[C@@H]1CCCC[C@@H]1NS(=O)(=O)c1ccc(Oc2ccccc2Cl)cc1`, the pIC50 was under 4.00.

With `NCc1ccc(C[C@H](NC(=O)OCc2ccccc2)C(=O)Nc2cccc(CN)c2)cc1`, the negative-log IC50 (pIC50) is 4.48.

With `COc1ccc(S(=O)(=O)Nc2cc(F)c(Cl)cc2C(=O)O)cc1`, the pIC50 is under 4.00.

`COc1cc(NS(=O)(=O)c2ccc(Oc3ccccc3Cl)cc2)c(C(=O)O)cc1Cl`: the pIC50 was 4.79.

Take `Cc1cc(C(=O)N[C@@H]2CC[C@@H]3CN(C)C[C@@H]32)sc1C=O`: the pIC50 was under 4.00.

`Cc1ncc(-c2ccc([C@@H](NC(=O)OCc3ccccc3)C(=O)Nc3cccc(CN)c3)cc2)s1` showed a pIC50 of 4.56.

For `OC[C@H]1CCN(c2cnc3ccccc3n2)C1`, the pIC50 was under 4.00.

`CCn1ccnc(N2C[C@H](c3c[nH]c4ccccc34)[C@H](OC(C)=O)C2)c1=O` gave a pIC50 of under 4.00.
